Experimental data reported in US11547681B2, “N-acylethanolamide derivatives and uses thereof” (ELIEM THERAPEUTICS, INC., priority 2016, dated 2023).

Assay: in vitro
Conditions: male, Sprague-Dawley, rat; for Concentration (μM) of analyte PEA, 0 min / Concentration (μM) of analyte PEA, 10 min / Concentration (μM) of analyte PEA, 20 min / Concentration (μM) of analyte PEA, 30 min / Concentration (μM) of analyte PEA, 60 min / % Remaining of Initial (n = 1), 0 min / % Remaining of Initial (n = 1), 10 min / % Remaining of Initial (n = 1), 20 min / % Remaining of Initial (n = 1), 30 min / % Remaining of Initial (n = 1), 60 min / Measured concentration of PEA (analyte) / % Remaining of Initial / Concentration of analyte I-9 / Concentration of analyte PEA / % Remaining of Initial (n = 1) / Concentration, analyte PEA: 1 μM
Protocol: The reaction mixture, minus cofactors, was prepared as described below. The test article was added into the reaction mixture at a final concentration of 1 μM. […] An aliquot of the reaction mixture (without cofactor cocktail) was equilibrated in a shaking water bath at 37° C. for 3 minutes. The reaction was initiated by the addition of cofactor cocktail, and the mixture was incubated in a shaking water bath at 37° C. Aliquots (100 μL) were withdrawn at 0, 10, 20, 30, and 60 minutes. All samples were immediately combined with 400 uL of icecold 50/50 acetonitrile/H2O containing 0.1% formic acid and internal standard to terminate the reaction. The samples were then mixed and centrifuged to precipitate proteins. Calibration standards were prepared in matched matrix. All samples and standards were assayed by LC-MS/MS using electrospray ionization for both the dosed prodrug I-9 and the expected drug (PEA). Analytical conditions are outlined in Appendix 4-1. The test article concentration at each time point was compared to the test article concentration at time 0 to determine the percent remaining at each time point. Half-lives were calculated using GraphPad software, fitting to single-phase exponential decay equation.
(§1) Reaction mixture, minus cofactors, was prepared as described below. Test article was added into the reaction mixture at a final concentration of 1 μM. […] An aliquot of the reaction mixture (without cofactor cocktail) was equilibrated in a shaking water bath at 37° C. for 3 minutes. The reaction was initiated by the addition of cofactor cocktail, and the mixture was incubated in a shaking water bath at 37° C. Aliquots (100 μL) were withdrawn at 0, 10, 20, 30, and 60 minutes. Test article samples were immediately combined with 300 μL of ice-cold acetonitrile containing 1% formic acid. Control samples were immediately combined with 400 μL of ice-cold 50/50 acetonitrile (ACN)/dH2O containing 0.1% formic acid and internal standard to terminate the reaction. Samples were then mixed and centrifuged to precipitate proteins. Calibration standards were prepared in matched matrix. Samples and standards were assayed by LC-MS/MS using electrospray ionization for both the dosed prodrug and the expected drug (PEA). Analytical conditions are outlined in Appendix 8-1. Test article concentration at each time point was compared to test article concentration at time 0 to determine the percent remaining at each time point. Halflives were calculated using GraphPad software, fitting to a single-phase exponential decay equation.
as §1, with “for 5” for “for 3”, “minutes. Reaction” for “minutes. The reaction”, “and” for “and the”, “both” for “both the”, “Appendix 10-1.” for “Appendix 8-1.”
Reaction mixture, minus cofactors, was prepared as described below.

Row | SMILES | Concentration (μM) of analyte PEA, 0 min (0 min) | Concentration (μM) of analyte PEA, 10 min (10 min) | Concentration (μM) of analyte PEA, 20 min (20 min) | Concentration (μM) of analyte PEA, 30 min (30 min) | Concentration (μM) of analyte PEA, 60 min (60 min) | % Remaining of Initial (n = 1), 0 min (s9, 0 h) | % Remaining of Initial (n = 1), 10 min (s9, 10 min) | % Remaining of Initial (n = 1), 20 min (s9, 20 min) | % Remaining of Initial (n = 1), 30 min (s9, 0.5 h) | % Remaining of Initial (n = 1), 60 min (s9, 1 h) | microsomal CLint at 1 μM (s9, CLint (mL/min/mg protein)) | half-life at 1 μM (s9, Half-life (min)) | microsomal CLint at 1 μM (s9, CLint) | half-life at 1 μM (s9, Half-life) | further results
1 | CCCCCCCCCCCCCCCC(=O)NCCOC(=O)CCC [Compound I-2] | 0.69 µM | 0.63 µM | 0.60 µM | 0.52 µM | 0.52 µM | 100% | 35% | <1.0% | <1.0% | <1.0% | 123 µL/min/mg | 5.6 min | – | – | –
2 | CCCCCCCCCCCCCCCC(=O)NCCOC(=O)CCC(=O)OCC(COC(=O)CCCCCCC)OC(=O)CCCCCCC (centres unmarked) [Compound I-3, PEA-Succinate-Glycerol-Di-Caprylic] | 0 µM | 0.024 µM | 0.037 µM | 0.047 µM | 0.073 µM | 100% | 53% | 46% | 42% | 31% | 26.8 µL/min/mg | 26 min | – | – | –
3 | CC/C=C\C/C=C\C/C=C\C/C=C\C/C=C\CCCC(=O)OCCNC(=O)CCCCCCCCCCCCCCC [Compound I-5] | 0.029 µM | 0.062 µM | 0.099 µM | 0.11 µM | 0.18 µM | 100% | 57% | 48% | 46% | 44% | 18.2 µL/min/mg | 38 min | – | – | –
4 | CCCCCCCCCCCCCCCC(=O)NCCOC(=O)CCC(=O)OC[C@H]1O[C@@](CO)(O[C@H]2O[C@H](CO)[C@@H](O)[C@H](O)[C@H]2O)[C@@H](O)[C@@H]1O [Compound I-7] | 0.042 µM | 0.24 µM | 0.35 µM | 0.47 µM | 0.60 µM | 100% | 60% | 37% | 31% | 13% | – | – | – | – | –
5 | CCCCCCCCCCCCCCCC(=O)NCCOC(=O)CCC(=O)OCC(O)CO (centres unmarked) [Compound I-9] | 0.034 µM | 0.22 µM | 0.31 µM | 0.36 µM | 0.39 µM | 100% | 45% | 26% | 15% | 3.6% | – | – | 125 µL/min/mg | 55 min | Concentration of analyte I-9 (0 min): 770 nM; Concentration of analyte PEA (0 min): 31 nM; Concentration of analyte I-9 (10 min): 910 nM; Concentration of analyte PEA (10 min): 88 nM; Concentration of analyte I-9 (20 min): 680 nM; Concentration of analyte PEA (20 min): 130 nM; Concentration of analyte I-9 (30 min): 580 nM; Concentration of analyte PEA (30 min): 160 nM; Concentration of analyte I-9 (60 min): 380 nM; Concentration of analyte PEA (60 min): 240 nM; % Remaining of Initial (n = 1) (s9, 0 h): 100%; % Remaining of Initial (n = 1) (s9, 10 min): 119%; % Remaining of Initial (n = 1) (s9, 20 min): 88%; % Remaining of Initial (n = 1) (s9, 0.5 h): 75%; % Remaining of Initial (n = 1) (s9, 1 h): 49%

Further lines, with some results ahead:

Row | Concentration (μM) of analyte PEA, 0 min (0 min) | Concentration (μM) of analyte PEA, 10 min (10 min) | Concentration (μM) of analyte PEA, 20 min (20 min) | Concentration (μM) of analyte PEA, 30 min (30 min) | Concentration (μM) of analyte PEA, 60 min (60 min) | % Remaining of Initial (n = 1), 0 min (s9, 0 h) | % Remaining of Initial (n = 1), 10 min (s9, 10 min) | % Remaining of Initial (n = 1), 20 min (s9, 20 min) | % Remaining of Initial (n = 1), 30 min (s9, 0.5 h) | % Remaining of Initial (n = 1), 60 min (s9, 1 h) | microsomal CLint at 1 μM (s9, CLint (mL/min/mg protein)) | half-life at 1 μM (s9, Half-life (min)) | microsomal CLint at 1 μM (s9, CLint) | half-life at 1 μM (s9, Half-life) | SMILES | further results
6 | 0.069 µM | 0.088 µM | 0.094 µM | 0.10 µM | 0.11 µM | 100% | 78% | 92% | 79% | 59% | < 11.6 µL/min/mg | > 60 min | – | – | CCCCC/C=C\C/C=C\CCCCCCCC(=O)OCCNC(=O)CCCCCCCCCCCCCCC [Compound I-6] | microsomal CLint at 1 μM (s9, CLint (mL/min/mg protein), calculated value in parentheses): 7.65 µL/min/mg; half-life at 1 μM (s9, Half-life (min), calculated half-life in parentheses): 91 min
7 | – | – | – | – | – | – | – | – | – | – | – | – | 50.3 µL/min/mg | 14 min | CCCCCCCCCCCCCCCC(=O)NCCOC(=O)CCC(=O)OC(CO)CO [Compound I-8] | Measured concentration of PEA (analyte) (0 min): 0.022 µM; Measured concentration of PEA (analyte) (10 min): 0.22 µM; Measured concentration of PEA (analyte) (20 min): 0.34 µM; Measured concentration of PEA (analyte) (30 min): 0.42 µM; Measured concentration of PEA (analyte) (60 min): 0.45 µM; % Remaining of Initial (s9, 0 h): 100%; % Remaining of Initial (s9, 10 min): 58%; % Remaining of Initial (s9, 20 min): 37%; % Remaining of Initial (s9, 0.5 h): 22%; % Remaining of Initial (s9, 1 h): 6.2%
8 | 0 µM | 0.13 µM | 0.24 µM | 0.35 µM | 0.38 µM | 100% | 1.4% | <1.0% | <1.0% | <1.0% | 425 µL/min/mg | 1.6 min | – | – | CCCCCCCCCCCCCCCC(=O)NCCOC(=O)CCC(=O)OCC(COC(=O)CCC)OC(=O)CCC (centres unmarked) [Compound I-11] | –
9 | – | – | – | – | – | – | – | – | – | – | – | – | < 11.6 µL/min/mg | > 60 min | CCCCC/C=C\C/C=C\CCCCCCCC(=O)OCC(COC(=O)CCC(=O)OCCNC(=O)CCCCCCCCCCCCCCC)OC(=O)CCCCCCC/C=C\C/C=C\CCCCC (centres unmarked) [Compound I-13] | Concentration, analyte PEA (0 min): 0 nM; Concentration, analyte PEA (10 min): 20 nM; Concentration, analyte PEA (20 min): 48 nM; Concentration, analyte PEA (30 min): 64 nM; Concentration, analyte PEA (60 min): 92 nM; % Remaining of Initial (n = 1) (s9, 0 h): 100%; % Remaining of Initial (n = 1) (s9, 10 min): 80%; % Remaining of Initial (n = 1) (s9, 20 min): 82%; % Remaining of Initial (n = 1) (s9, 0.5 h): 81%; % Remaining of Initial (n = 1) (s9, 1 h): 55%; microsomal CLint at 1 μM (s9, CLint, calculated (in parentheses)): 8.59 µL/min/mg; half-life at 1 μM (s9, Half-life, calculated (in parentheses)): 81 min
10 | – | – | – | – | – | – | – | – | – | – | – | – | > 691 µL/min/mg | < 1 min | CCCCCCCCCCCCCCCC(=O)NCCOC(=O)CCC(=O)OC(COC(=O)CCC)COC(=O)CCC [Compound I-16] | Measured concentration of PEA (analyte) (0 min): 0 µM; Measured concentration of PEA (analyte) (10 min): 0.20 µM; Measured concentration of PEA (analyte) (20 min): 0.28 µM; Measured concentration of PEA (analyte) (30 min): 0.34 µM; Measured concentration of PEA (analyte) (60 min): 0.38 µM; % Remaining of Initial (s9, 0 h): 100%; % Remaining of Initial (s9, 10 min): <1.0%; % Remaining of Initial (s9, 20 min): <1.0%; % Remaining of Initial (s9, 0.5 h): <1.0%; % Remaining of Initial (s9, 1 h): <1.0%
